One data set deals with Pseudomonas aeruginosa. The data set can be described thus: Antibacterial activity against Pseudomonas aeruginosa ATCC 27853 assessed as reduction in bacterial cell growth incubated for 18 hrs by two fold serial microdilution method. Type of data set: functional. On the technique in general: Broth dilution looks for growth in wells or tubes with falling amounts of substance.

A further data set has as its system Acinetobacter baumannii. The data set can be described thus: Antibacterial activity against Acinetobacter baumannii ATCC 19606 assessed as inhibition in bacterial growth incubated for 20 to 24 hrs by CLSI based broth microdilution method. Type of data set: functional. The conditions noted are these: time 20-24 hrs.
The subject of a further data set is Staphylococcus aureus. The data set can be described thus: Antibacterial activity against Staphylococcus aureus ATCC 25923 assessed as reduction in bacterial cell growth incubated for 18 hrs by two fold serial microdilution method. It is filed as functional.
Another data set deals with Erythrocyte. Briefly: Hemolytic activity in mouse Red blood cells incubated for 1 hr. Type of data set: toxicity, cell-based.
The next data set concerns Klebsiella pneumoniae. The data set can be described thus: Antibacterial activity against Klebsiella pneumoniae ATCC 700603 assessed as reduction in bacterial cell growth incubated for 18 hrs by two fold serial microdilution method. It is filed as functional.
Data set [1] has as its system Staphylococcus epidermidis. The data set can be described thus: Antibacterial activity against Staphylococcus epidermidis ATCC 12228 assessed as reduction in bacterial cell growth incubated for 18 hrs by two fold serial microdilution method. It is filed as functional.
The next data set relates to Escherichia coli. The data set can be described thus: Antibacterial activity against Escherichia coli ATCC 25922 assessed as reduction in bacterial cell growth incubated for 18 hrs by two fold serial microdilution method. It is filed as functional.

In brackets after ≈: the same amount, converted by molar mass. Square brackets hold non-standard residues; d marks the D form. Peptide text beside a SMILES is read from it. βAla = NCCC(=O)O

In the case of `CC[C@H](C)[C@H](NC(=O)[C@H](CCCNC(=N)N)NC(=O)[C@H](CCCCN)NC(=O)[C@H](CC(C)C)NC(=O)[C@H](CC(C)C)NC(=O)CN)C(=O)N[C@@H](CCCCN)C(=O)N[C@H](C(=O)N[C@@H](CC(C)C)C(=O)NCCC(N)=O)[C@@H](C)O` (H-GLLKRIKTL[βAla]-NH2), the minimal inhibitory concentration (MIC) (in the data set on Pseudomonas aeruginosa; in the data set on Acinetobacter baumannii; in the data set with Staphylococcus aureus; with Klebsiella pneumoniae; in data set [1]; in the data set with Escherichia coli) was over 128 µM each time. The same compound yielded an HC10 in the data set with Erythrocyte of over 256 µM.

On to `CC[C@H](C)[C@H](NC(=O)[C@H](CCCNC(=N)N)NC(=O)[C@H](CCCCN)NC(=O)[C@H](CC(C)C)NC(=O)[C@H](CC(C)C)NC(=O)CN)C(=O)N[C@@H](CCCCN)C(=O)N[C@H](C(=O)NCCC(=O)N[C@@H](CC(C)C)C(N)=O)[C@@H](C)O` (H-GLLKRIKT[βAla]L-NH2), for which the MIC (in the data set with Pseudomonas aeruginosa; in the data set on Acinetobacter baumannii; with Staphylococcus aureus; in the data set with Klebsiella pneumoniae; in data set [1]; in the data set on Escherichia coli) was over 128 µM each time. The HC10 in the data set with Erythrocyte was over 256 µM.

Regarding `CC[C@H](C)[C@H](NC(=O)[C@H](CCCNC(=N)N)NC(=O)[C@H](CCCCN)NC(=O)[C@H](CC(C)C)NC(=O)[C@H](CC(C)C)NC(=O)CN)C(=O)N[C@@H](CCCCN)C(=O)NCCC(=O)N[C@@H](CC(C)C)C(=O)N[C@@H](CC(C)C)C(N)=O` (H-GLLKRIK[βAla]LL-NH2), the MIC with Pseudomonas aeruginosa is 4 µM (≈ 4.49 µg/mL); with Acinetobacter baumannii, over 128 µM; in the data set with Staphylococcus aureus, 128 µM (≈ 144 µg/mL); in the data set on Klebsiella pneumoniae, 128 µM (≈ 144 µg/mL); in data set [1], 16 µM (≈ 18 µg/mL); in the data set on Escherichia coli, 32 µM (≈ 36 µg/mL). In the data set on Erythrocyte, the HC10 was over 256 µM.

With `CC[C@H](C)[C@H](NC(=O)[C@H](CCCNC(=N)N)NC(=O)[C@H](CCCCN)NC(=O)[C@H](CC(C)C)NC(=O)[C@H](CC(C)C)NC(=O)CN)C(=O)NCCC(=O)N[C@H](C(=O)N[C@@H](CC(C)C)C(=O)N[C@@H](CC(C)C)C(N)=O)[C@@H](C)O` (H-GLLKRI[βAla]TLL-NH2), the MIC with Pseudomonas aeruginosa is 32 µM (≈ 35.1 µg/mL); in the data set on Acinetobacter baumannii it was over 128 µM; in the data set on Staphylococcus aureus, 64 µM (≈ 70.2 µg/mL); with Klebsiella pneumoniae, 128 µM (≈ 140 µg/mL); in data set [1] it was 32 µM (≈ 35.1 µg/mL); with Escherichia coli, 64 µM (≈ 70.2 µg/mL). In the data set with Erythrocyte, the HC10 was over 256 µM.

`CC(C)C[C@H](NC(=O)[C@H](CC(C)C)NC(=O)[C@@H](NC(=O)[C@H](CCCCN)NC(=O)CCNC(=O)[C@H](CCCNC(=N)N)NC(=O)[C@H](CCCCN)NC(=O)[C@H](CC(C)C)NC(=O)[C@H](CC(C)C)NC(=O)CN)[C@@H](C)O)C(N)=O` (H-GLLKR[βAla]KTLL-NH2): the MIC (with Pseudomonas aeruginosa; in the data set on Acinetobacter baumannii; in the data set with Staphylococcus aureus; in the data set on Klebsiella pneumoniae; in data set [1]; with Escherichia coli) was over 128 µM in each case. For the same compound, the HC10 in the data set with Erythrocyte was over 256 µM.

With `CC[C@H](C)[C@H](NC(=O)CCNC(=O)[C@H](CCCCN)NC(=O)[C@H](CC(C)C)NC(=O)[C@H](CC(C)C)NC(=O)CN)C(=O)N[C@@H](CCCCN)C(=O)N[C@H](C(=O)N[C@@H](CC(C)C)C(=O)N[C@@H](CC(C)C)C(N)=O)[C@@H](C)O` (H-GLLK[βAla]IKTLL-NH2), the MIC with Pseudomonas aeruginosa is 16 µM (≈ 17.1 µg/mL); in the data set on Acinetobacter baumannii, over 128 µM; in the data set on Staphylococcus aureus, over 128 µM; in the data set on Klebsiella pneumoniae, over 128 µM; in data set [1], 32 µM (≈ 34.2 µg/mL); with Escherichia coli, over 128 µM. The HC10 in the data set with Erythrocyte is over 256 µM.

With `CC[C@H](C)[C@H](NC(=O)[C@H](CCCNC(=N)N)NC(=O)CCNC(=O)[C@H](CC(C)C)NC(=O)[C@H](CC(C)C)NC(=O)CN)C(=O)N[C@@H](CCCCN)C(=O)N[C@H](C(=O)N[C@@H](CC(C)C)C(=O)N[C@@H](CC(C)C)C(N)=O)[C@@H](C)O` (H-GLL[βAla]RIKTLL-NH2), the MIC in the data set on Pseudomonas aeruginosa is 32 µM (≈ 35.1 µg/mL); in the data set on Acinetobacter baumannii, over 128 µM; in the data set with Staphylococcus aureus it was over 128 µM; in the data set with Klebsiella pneumoniae it was over 128 µM; in data set [1], 64 µM (≈ 70.2 µg/mL); with Escherichia coli, 128 µM (≈ 140 µg/mL). This compound also yielded an HC10 with Erythrocyte of over 256 µM.

What is called MIC is the lowest concentration found to suppress growth.

These data come from ChEMBL document CHEMBL5608163, “Structure modification of anoplin for fighting resistant bacteria” (Eur J Med Chem, 2024).
